We go through three compounds from patent publication US20110054039A1, “USE OF ALKYL SULFATES OR SULFONATES AGAINST PROPIONIBACTERIUM ACNES” (priority 2008, published 2011).

Where only a bound is given, the exact number is not on record here.

Holding throughout (assay type): cell-based
Assay [1] has as its system Propionibacterium acnes NCTC 737. The assay can be described thus: Minimum Inhibitory Concentration (MIC) assay, broth microdilution. As to conditions: Cutibacterium acnes, NCTC737; P. acnes NCTC 737; Wilkins-Chalgren broth pH 6.0, anaerobic, 37° C., 72 hours; read-out: MIC. Here is the method: (§1) The test micro-organism represented the cutaneous propionibacteria. […] The propionibacteria are clinically significant due to their involvement in acne. This is a very common, complex and multi-factorial skin disease in which P. acnes and other Propionibacterium spp. […] They are also opportunistic pathogens in compromised hosts.
(§2) The propionibacteria were cultured and maintained on Wilkins-Chalgren Anaerobe Medium (agar and broth) at pH 6.0; all cultures were incubated anaerobically at 37° C. for 72 hours.
This is a standard international method for quantitatively assessing the antimicrobial activity of a compound in a liquid medium. […] The culture media were as described above.
The wells were inoculated with a liquid suspension of freshly grown micro-organism and incubated under the conditions described above. After incubation, the microtitre plate was examined visually (with the aid of a light box) for cloudiness in each well, which would indicate microbial growth. The MIC value was recorded as the lowest concentration of test compound required to inhibit microbial growth, ie the lowest concentration for which the liquid in the well remained clear.
The assays included both negative (culture medium with no micro-organisms) and positive (culture medium plus diluting solvent plus micro-organism) controls.
(§3) MIC, MBC and DDA assays, as described above, were carried out using as the test compound sodium n-tetradecyl sulphate (STS, ex Sigma Aldrich, UK), dissolved in distilled water. All the experiments were conducted in triplicate. For the DDA experiments, 200 μg of the test compound was loaded onto each disc.
(§4) The MIC/MBC experiments were conducted in triplicate, with the exception of those for SDS and ADS which were conducted in duplicate. The DDAs were performed either in triplicate, in which case standard deviations are quoted in parentheses, or as a single replicate. For the DDA experiments, 200 μg of the test compound was loaded onto each disc.
On the technique in general: In broth dilution the organism is exposed to a series of concentrations in liquid medium.

Assay [2] has the same test system. The assay can be described thus: Minimum Biocidal (Bactericidal) Concentration (MBC) assay. As to conditions: P. acnes NCTC 737; for MBC: Cutibacterium acnes, NCTC737, sub-culture on antibiotic-free agar after MIC assay, read-out: MBC. Here is the method:
as §1, §2
This assay, normally carried out after an MIC assay, determines the minimum concentration of a compound that is lethal to the micro-organism being tested.
These samples were then individually sub-cultured on antibiotic-free agar medium, under the incubation conditions described above. Following incubation they were examined visually for microbial growth.
as §3, §4

Assay [3] shares this test system. Nature of the assay: Disc Diffusion Assay (DDA). As to conditions: Cutibacterium acnes, NCTC737; P. acnes NCTC 737; 200 μg of test compound per disc; read-out: DDA (diameter of zone of inhibition). The method, then:
as §1, §2
This is an internationally recognised standard method for qualitatively assessing the antimicrobial activity of a compound.
(§5) A sterile paper disc was impregnated with a sample of the test compound in a suitable solvent and 30 minutes allowed for the solvents to evaporate (where possible). The disc was then placed on an agar plate onto which the test micro-organism had been inoculated. The plate was then incubated under the conditions described above, following which it was examined visually for signs of microbial growth. […] The diameter of this zone of ‘inhibition’ was measured using a ProtoCOL™ automated zone sizer (Synbiosis, Cambridge, UK).
as §3, §4

Assay [4] has the same test system. Nature of the assay: Supplemented Disc Diffusion Assay (agar with salt or lipid). As to conditions: Cutibacterium acnes, NCTC737, 72 h, P. acnes NCTC 737, 200 μg per disc. The method, then:
as §1, §2, §5
Performance under these conditions can provide a more reliable indication of activity on topical application.
as §3, §4
For orientation: A growth-free zone around the sample is the usual read-out of agar diffusion tests.

Where [5] appears, read: agar supplemented with sodium chloride (100 mM), read-out: DDA + salt.
The mark [6] stands for this setting: agar supplemented with triolein at 1% v/v, read-out: DDA + lipid.

Broadly, the MIC is the least concentration at which growth counts as inhibited. One may read the MBC as the smallest concentration meeting the test's criterion for killing. Regarding `CCCCCCCCCCCCCCCCCCS(=O)(=O)O.[Na]` [Sodium 1-octadecane sulphonic acid, sodium 1-octadecane sulphonic acid], the MIC in assay [1] was determined as 125 µg/mL. For the same compound, the MBC in assay [2] is > 250 µg/mL. The MIC/MBC ratio in assay [2] is on record as <0.5. In addition, the zone of inhibition at 200 µg/disc in assay [3], in assay [4] (setting [5]) and in assay [4] (setting [6]) was 0 mm throughout.

In the case of `CCCCCCCCCCCCCCCCOS(=O)(=O)[O-].[Na+]` [Sodium hexadecyl sulphate, sodium hexadecyl sulphate], in assay [1], the MIC worked out at 0.98 µg/mL. For the same compound, in assay [2], the MBC was 1.95 µg/mL. In addition, in assay [2], the MIC/MBC ratio worked out at 0.5. Moreover, the values for the zone of inhibition at 200 µg/disc in assay [3], in assay [4] (setting [5]) and in assay [4] (setting [6]) were 36.3 mm, 32.4 mm and 39.8 mm, respectively.

Regarding `CCCCCCCCCCCCCS(=O)(=O)O.[Na]` [Sodium 1-tridecane sulphonic acid, sodium 1-tridecane sulphonic acid], in assay [1], the minimal inhibitory concentration (MIC) came to 15.6 µg/mL. Also, the MBC in assay [2] turned out to be 31.2 µg/mL. Also, in assay [2], the MIC/MBC ratio was 0.5. The zone of inhibition at 200 µg/disc in assay [3] is 28.6 mm; in assay [4] (setting [5]), 29.3 mm; in assay [4] (setting [6]) it was 27.4 mm.
